Among the data in the Kinase Knowledgebase extract (Sharma et al. 2016) are IC50 and inhibition values, retold here.

The target in one assay is EGFR (human) (UniProt P00533). The conditions noted are these: kb.
Chain of EGFR (human) (P00533 whole entry, looked up): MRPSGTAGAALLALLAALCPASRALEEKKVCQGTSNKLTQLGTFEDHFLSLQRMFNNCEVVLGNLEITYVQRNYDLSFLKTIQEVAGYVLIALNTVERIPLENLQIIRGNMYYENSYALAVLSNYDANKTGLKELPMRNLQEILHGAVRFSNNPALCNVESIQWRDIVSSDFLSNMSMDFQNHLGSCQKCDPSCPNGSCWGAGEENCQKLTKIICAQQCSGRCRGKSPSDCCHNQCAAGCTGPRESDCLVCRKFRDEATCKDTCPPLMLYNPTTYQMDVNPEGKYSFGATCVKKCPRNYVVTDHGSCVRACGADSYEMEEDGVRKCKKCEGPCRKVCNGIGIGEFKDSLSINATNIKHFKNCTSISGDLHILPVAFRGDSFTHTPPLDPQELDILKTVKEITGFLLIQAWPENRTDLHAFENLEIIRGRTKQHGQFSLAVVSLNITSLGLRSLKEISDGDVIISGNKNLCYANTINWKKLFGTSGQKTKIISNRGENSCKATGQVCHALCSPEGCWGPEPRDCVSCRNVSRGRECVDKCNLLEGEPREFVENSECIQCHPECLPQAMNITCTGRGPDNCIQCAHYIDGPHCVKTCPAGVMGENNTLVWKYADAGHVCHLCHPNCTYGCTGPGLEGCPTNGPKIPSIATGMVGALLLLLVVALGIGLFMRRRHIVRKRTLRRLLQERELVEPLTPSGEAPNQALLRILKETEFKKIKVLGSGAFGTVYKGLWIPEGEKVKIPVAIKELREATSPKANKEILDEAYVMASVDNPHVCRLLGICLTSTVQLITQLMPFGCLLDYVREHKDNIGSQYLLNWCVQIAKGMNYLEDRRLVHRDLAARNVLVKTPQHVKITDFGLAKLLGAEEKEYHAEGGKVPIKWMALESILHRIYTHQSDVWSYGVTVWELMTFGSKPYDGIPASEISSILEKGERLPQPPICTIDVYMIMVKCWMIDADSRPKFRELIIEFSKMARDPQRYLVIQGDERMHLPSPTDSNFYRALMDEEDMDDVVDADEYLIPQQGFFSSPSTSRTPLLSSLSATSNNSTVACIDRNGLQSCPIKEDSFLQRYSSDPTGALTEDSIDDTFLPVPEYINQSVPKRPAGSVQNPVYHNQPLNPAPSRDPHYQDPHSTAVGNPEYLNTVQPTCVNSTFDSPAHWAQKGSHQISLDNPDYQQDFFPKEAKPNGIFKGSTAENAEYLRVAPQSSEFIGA
Take `COc1cc2ncnc(NCc3cccc(C)c3)c2cc1OC`: the concentration for half-maximal inhibition (IC50) worked out at 1600 nM.

Compound `COc1cc2ncnc(NC3CC3c3ccccc3)c2cc1OCCCN(C)C` (centres undefined) displayed an IC50 of 310 nM.

In the case of `COc1cc2ncnc(N3CCc4ccccc43)c2cc1OC`, the concentration for half-maximal inhibition (IC50) came out at 4100 nM.

As for `COc1cc2ncnc(NNc3ccc(F)c(Cl)c3)c2cc1OC`, the half-maximal inhibitory concentration (IC50) worked out at 780 nM.

Compound `COc1cc2ncnc(Nc3cncc4ccccc34)c2cc1OC` gave an IC50 of 360 nM.

Turning to `COc1cc2ncnc(NC3CC3c3ccccc3)c2cc1OCCN1CCOCC1` (centres undefined), the 50% inhibitory concentration (IC50) came to 570 nM.

`COc1cc2ncnc(Nc3nnc4ccccc4n3)c2cc1OC`: the IC50 was above 25000 nM.

Take `COc1cc2ncnc(NC3CC3c3ccccc3)c2cc1O` (centres undefined): the concentration for half-maximal inhibition (IC50) is above 25000 nM.

For the compound `COc1cc2ncnc(NC3CC3c3ccccc3)c2cc1OC` (centres undefined), the IC50 came to 140 nM.

For the compound `COc1cc2ncnc(NC3CC3c3ccccc3)c2cc1OC(C)=O` (centres undefined), the half-maximal inhibitory concentration (IC50) turned out to be 11400 nM.

`COc1cc2ncnc(Nc3cnc4ccccc4n3)c2cc1OC` registered an IC50 above 25000 nM.

With `COc1cc2ncnc(Nc3nccc4ccccc34)c2cc1OC`, the IC50 is 1800 nM.

On to `COc1cc2ncnc(NC3CCc4ccccc43)c2cc1OC` (centres undefined), for which the IC50 was found to be 1730 nM.

The target in another assay is EGFR (human) (UniProt P00533). The conditions noted are these: a431, dose or concentration not given here.
With `COc1cc2ncnc(NC3CC3c3ccccc3)c2cc1OCCCN(C)C` (centres undefined), the inhibition was 36%.
